This is an account of results in patent publication US20250144067A1, “PERSONALIZED STARVATION THERAPY FOR CANCER” (Faeth Therapeutics, Inc., priority 2021, published 2025).

Structures can show the parent of a compound that is named as a salt. Where two headings read alike, the source gives them in different places.

In experiment [1] the test system is NCI-H292 lung cancer cells. Put plainly: FDA drug screening, complete media vs cholesterol-free media with simvastatin (TABLE 2). It is filed as cell-based, human.
For experiment [2], the system named is NCI-H292 lung cancer cells. The experiment can be described thus: FDA drug screening, complete media vs cholesterol-free media without statin (TABLE 1). Type of experiment: cell-based, human.
[3] abbreviates: NCI-H292 cells, cholesterol-free media with simvastatin 0.04 μM, cell growth value in FDA drug screen.
[4] abbreviates: NCI-H292 cells, complete media, cell growth value in FDA drug screen.
Where [5] appears, read: complete media minus cholesterol-free media + simvastatin, >0 enhanced anti-cancer activity, about 0 neutral, <0 antagonist.
Setting [6] is: Complete minus Cholesterol-free, greater than 0 enhanced anti-cancer activity, about 0 neutral, below 0 antagonist.
Setting [7] is: NCI-H292 cells, FDA drug library screen, cholesterol-free media without statin.
Where [8] appears, read: NCI-H292 cells, FDA drug library screen, complete media.
The mark [9] stands for this setting: NCI-H292 cells, FDA drug library screen, cholesterol-free media with simvastatin 0.04 μM.
The mark [10] stands for this setting: complete media vs cholesterol-free media + simvastatin (0.04 μM), >0 enhanced anti-cancer activity, about 0 neutral, <0 antagonist.
[11] abbreviates: Complete minus Cholesterol-free, >0 enhanced anti-cancer activity, about 0 neutral, <0 antagonist.
[12] abbreviates: NCI-H292 cells, cholesterol-free media without statin, FDA drug library screen.
The mark [13] stands for this setting: NCI-H292 cells, complete media, FDA drug library screen.
Where [14] appears, read: NCI-H292 cells, cholesterol-free media without statin.
The mark [15] stands for this setting: complete vs cholesterol-free media, greater than 0 enhanced anti-cancer activity, about 0 neutral, below 0 antagonists.
Where [16] appears, read: NCI-H292 cells, drug in cholesterol-free media with simvastatin 0.04 μM.
Setting [17] is: NCI-H292 cells, drug in complete media.
Setting [18] is: complete media vs cholesterol-free media + simvastatin (0.04 μM), […].
Where [19] appears, read: Complete minus Cholesterol-free, […].
[20] abbreviates: NCI-H292 cells, cholesterol-free media with simvastatin 0.04 μM, FDA drug library screen (TABLE 2).
The mark [21] stands for this setting: NCI-H292 cells, complete media, FDA drug library screen (TABLE 2).
Where [22] appears, read: complete media minus cholesterol-free media + simvastatin (0.04 μM), >0 enhanced anti-cancer activity, about 0 neutral, <0 antagonist.

For the molecule `O=c1[nH]c2ccccc2n1CCCN1CCC(n2c(=O)[nH]c3cc(Cl)ccc32)CC1` [Domperidone], the “Cholesterol-free media + simvastatin (0.04 μM)” value in experiment [1] (setting [3]) turned out to be 0.9833. In experiment [1] (setting [4]), the “Complete Media” value was determined as 1.061. Further, the values for the Difference in experiment [1] (setting [5]) and in experiment [2] (setting [6]) were 0.08 and −0.14, respectively. Further, in experiment [2] (setting [7]), the Cholesterol-free turned out to be 1.085. This molecule yielded a Complete in experiment [2] (setting [8]) of 0.9412.
For `CN(C)C(=O)C(CCN1CCC(O)(c2ccc(Cl)cc2)CC1)(c1ccccc1)c1ccccc1` [Loperamide (hydrochloride)], in experiment [1], the “Cholesterol-free media + simvastatin (0.04 μM)” value came to 1.197, the “Complete Media” value was 0.9577 and the Difference was −0.24. Also, in experiment [2], the Cholesterol-free stood at 1.105, the Complete stood at 0.9631 and the Difference is −0.14.
For the molecule `CC[C@@]1(O)C(=O)OCc2c1cc1n(c2=O)Cc2cc3c(CN(C)C)c(O)ccc3nc2-1` [Topotecan (Hydrochloride)], the “Cholesterol-free media + simvastatin (0.04 μM)” value in experiment [1] (setting [9]) was 0.1355. Besides, the “Complete Media” value in experiment [1] (setting [8]) stood at 0.04638. In addition, the values for the Difference in experiment [1] (setting [10]) and in experiment [2] (setting [11]) were −0.09 and −0.03, respectively. Moreover, the Cholesterol-free in experiment [2] (setting [12]) turned out to be 0.05524. The molecule also displayed a Complete in experiment [2] (setting [13]) of 0.02609.
On to `CCC[C@@H]1C[C@@H](C(=O)N[C@@H]([C@H]2O[C@H](SC)[C@H](OP(=O)(O)O)[C@@H](O)[C@H]2O)[C@H](C)Cl)N(C)C1` [Clindamycin (phosphate)], for which the “Cholesterol-free media + simvastatin (0.04 μM)” value in experiment [1] (setting [3]) is reported as 1.017. Moreover, the “Complete Media” value in experiment [1] (setting [4]) was 1.129. Further, the Difference in experiment [1] (setting [5]) is listed as 0.11; in experiment [2] (setting [15]) it was −0.44. In addition, the Cholesterol-free in experiment [2] (setting [14]) stood at 1.342. This molecule gave a Complete in experiment [2] (NCI-H292 cells, complete media) of 0.8969.
Take `CC1CNc2c(cccc2S(=O)(=O)N[C@@H](CCCNC(=N)N)C(=O)N2CC[C@@H](C)C[C@@H]2C(=O)O)C1` (stereo partly shown) [Argatroban (monohydrate)]: in experiment [1] (setting [16]), the “Cholesterol-free media + simvastatin (0.04 μM)” value was 1.179. Moreover, the “Complete Media” value in experiment [1] (setting [17]) came out at 0.9367. Moreover, the Difference in experiment [1] (setting [10]) is −0.24; in experiment [2] (setting [6]), −0.08. In experiment [2] (setting [7]), the Cholesterol-free amounted to 1.232.
With `CC1=C2[C@H]3OC(=O)[C@@H](C)[C@@H]3CC[C@@]2(C)C=CC1=O` [Santonin], the “Cholesterol-free media + simvastatin (0.04 μM)” value in experiment [1] (setting [16]) was 1.229. Further, in experiment [1] (setting [17]), the “Complete Media” value came to 1.004. The Difference in experiment [1] (setting [18]) is on record as −0.23; in experiment [2] (setting [19]) it was −0.53. This molecule also came in with a Cholesterol-free in experiment [2] (NCI-H292 cells in cholesterol-free media without statin) of 1.389. Moreover, the Complete in experiment [2] (NCI-H292 cells in complete media) is reported as 0.8572.
As for `O=c1[nH]c(=O)n([C@H]2C[C@H](O)[C@@H](CO)O2)cc1/C=C/Br` [Brivudine], the “Cholesterol-free media + simvastatin (0.04 μM)” value in experiment [1] (setting [3]) was determined as 1.157. Further, in experiment [1] (setting [4]), the “Complete Media” value stood at 1.26. Besides, the results for the Difference in experiment [1] (setting [5]) and in experiment [2] (setting [15]) were 0.10 and −0.38, respectively. In addition, the Cholesterol-free in experiment [2] (setting [14]) is reported as 1.108. In experiment [2] (NCI-H292 cells, complete media), the Complete is given as 0.7267.
As to `CC1(C)O[C@@H]2[C@@H](CO[C@@]3(COS(N)(=O)=O)OC(C)(C)O[C@@H]23)O1` [Topiramate], in experiment [1] (setting [3]), the “Cholesterol-free media + simvastatin (0.04 μM)” value was determined as 1.666. In addition, the “Complete Media” value in experiment [1] (setting [4]) is listed as 1.706. In addition, the Difference in experiment [1] (setting [5]) is 0.04; in experiment [2] (setting [15]), −0.43. In addition, the Cholesterol-free in experiment [2] (setting [14]) is listed as 1.406. The same molecule showed a Complete in experiment [2] (NCI-H292 cells, complete media) of 0.9724.
In the case of `CC(C)(O)C(Cl)(Cl)Cl` [Chlorobutanol], the “Cholesterol-free media + simvastatin (0.04 μM)” value in experiment [1] (setting [16]) is listed as 1.763. Besides, the “Complete Media” value in experiment [1] (setting [17]) is recorded as 1.523. Also, the results for the Difference in experiment [1] (setting [10]) and in experiment [2] (setting [11]) were −0.24 and 0.02, respectively. This molecule also registered a Cholesterol-free in experiment [2] (setting [12]) of 0.5641. This molecule returned a Complete in experiment [2] (setting [13]) of 0.5799.
Turning to `NS(=O)(=O)c1cc2c(cc1Cl)N=C(CSCc1ccccc1)NS2(=O)=O` [Benzthiazide], in experiment [1] (setting [3]), the “Cholesterol-free media + simvastatin (0.04 μM)” value is reported as 1.107. For the same molecule, the Difference was 0.04 in experiment [1] (setting [5]) and −0.08 in experiment [2] (setting [6]). In experiment [2] (setting [7]), this molecule yielded a Cholesterol-free of 0.9561. Moreover, the Complete in experiment [2] (setting [8]) is 0.8751.
On to `Cc1cc(N2CCN([C@@H]3CN[C@H](C(=O)N4CCSC4)C3)CC2)n(-c2ccccc2)n1` [Teneligliptin], for which the “Cholesterol-free media + simvastatin (0.04 μM)” value in experiment [1] (setting [9]) is recorded as 0.6861. The “Complete Media” value in experiment [1] (setting [8]) came out at 1.012. Besides, the Difference in experiment [1] (complete media minus cholesterol-free media + simvastatin, […]) is on record as 0.33; in experiment [2] (complete vs cholesterol-free media, […]), −0.34. Further, the Cholesterol-free in experiment [2] (setting [14]) is listed as 1.328. In experiment [2] (NCI-H292 cells, complete media), the Complete was 0.9852.
As to `CO/N=C(\C(=O)N[C@@H]1C(=O)N2C(C(=O)[O-])=C(COC(N)=O)CS[C@H]12)c1ccco1.[Na+]` [Cefuroxime (sodium)], the “Cholesterol-free media + simvastatin (0.04 μM)” value in experiment [1] (setting [9]) worked out at 1.129. Moreover, in experiment [1] (setting [8]), the “Complete Media” value was 1.035. Further, the results for the Difference in experiment [1] (setting [10]) and in experiment [2] (setting [11]) were −0.09 and −0.19, respectively. The same molecule had a Cholesterol-free in experiment [2] (setting [14]) of 1.146. In experiment [2] (NCI-H292 cells, complete media), this molecule had a Complete of 0.9534.
As to `CCCCC(=O)OCC(=O)[C@]1(O)Cc2c(O)c3c(c(O)c2[C@@H](O[C@H]2C[C@H](NC(=O)C(F)(F)F)[C@H](O)[C@H](C)O2)C1)C(=O)c1c(OC)cccc1C3=O` [Valrubicin], the “Cholesterol-free media + simvastatin (0.04 μM)” value in experiment [1] (setting [3]) came to 0.07499. Besides, the “Complete Media” value in experiment [1] (setting [4]) was found to be 0.1845. Further, the Difference amounted to 0.11 in experiment [1] (setting [5]) and 0.02 in experiment [2] (setting [11]). Moreover, in experiment [2] (setting [12]), the Cholesterol-free is reported as 0.04622. In addition, the Complete in experiment [2] (setting [13]) is listed as 0.06624.
On to `CCC(=O)O[C@]1(C(=O)CCl)[C@@H](C)C[C@H]2[C@@H]3C[C@H](F)C4=CC(=O)C=C[C@]4(C)[C@@]3(F)[C@@H](O)C[C@@]21C` [Halobetasol (propionate)], for which the “Cholesterol-free media + simvastatin (0.04 μM)” value in experiment [1] (setting [20]) amounted to 0.5775. In addition, the “Complete Media” value in experiment [1] (setting [21]) is 0.585. The Difference is given as 0.01 in experiment [1] (setting [22]) and −0.18 in experiment [2] (setting [6]). The same molecule returned a Cholesterol-free in experiment [2] (setting [7]) of 0.7462. In experiment [2] (setting [8]), this molecule returned a Complete of 0.5641.
Regarding Acetylspiramycin, the “Cholesterol-free media + simvastatin (0.04 μM)” value in experiment [1] (setting [9]) is listed as 1.237. For the same molecule, the “Complete Media” value in experiment [1] (setting [8]) is given as 1.1. For the same molecule, the Difference in experiment [1] (setting [18]) is given as −0.14; in experiment [2] (setting [19]) it was −0.20. This molecule showed a Cholesterol-free in experiment [2] (setting [14]) of 1.42. This molecule gave a Complete in experiment [2] (NCI-H292 cells, complete media) of 1.224.
As for `CNCCc1ccccn1.CS(=O)(=O)O.CS(=O)(=O)O` [Betahistine (mesylate)], the “Cholesterol-free media + simvastatin (0.04 μM)” value in experiment [1] (setting [20]) stood at 1.015. In addition, the “Complete Media” value in experiment [1] (setting [21]) is given as 1.025. Further, the Difference in experiment [1] (setting [22]) is 0.01; in experiment [2] (setting [15]) it was −0.36. The same molecule came in with a Cholesterol-free in experiment [2] (setting [14]) of 1.235. This molecule also gave a Complete in experiment [2] (NCI-H292 cells, complete media) of 0.8713.
On to `CN(Cc1cc(Br)cc(Br)c1N)C1CCCCC1` [Bromhexine (hydrochloride)], for which, in experiment [1] (NCI-H292 cells, FDA library drug in cholesterol-free media with simvastatin 0.04 μM), the “Cholesterol-free media + simvastatin (0.04 μM)” value is 1.081. For the same molecule, in experiment [1] (NCI-H292 cells, FDA library drug in complete media), the “Complete Media” value is 0.7932. Further, the values for the Difference in experiment [1] (setting [10]) and in experiment [2] (setting [6]) were −0.29 and −0.09, respectively. Besides, in experiment [2] (setting [7]), the Cholesterol-free is listed as 1.344. In experiment [2] (setting [8]), this molecule yielded a Complete of 1.254.
In the case of `CCOC(=O)N[C@@H]1CC[C@@H]2[C@@H](C1)C[C@H]1C(=O)O[C@H](C)[C@H]1[C@H]2/C=C/c1ccc(-c2cccc(F)c2)cn1` [Vorapaxar], the “Cholesterol-free media + simvastatin (0.04 μM)” value in experiment [1] (setting [20]) is 1.048. Moreover, the “Complete Media” value in experiment [1] (setting [21]) came to 1.005. Besides, the Difference is −0.04 in experiment [1] (setting [22]) and −0.20 in experiment [2] (setting [11]). In experiment [2] (setting [14]), this molecule displayed a Cholesterol-free of 1.186. In experiment [2] (NCI-H292 cells, complete media), this molecule showed a Complete of 0.984.
